Reference: ChEMBL document CHEMBL5331061, “Design, synthesis, and biological evaluation of Wee1 kinase degraders” (Eur J Med Chem, 2022)
pIC50: −log10 of the molar value. The source made the active and inactive calls. No cut-off for these calls is given here.

Assays:
[1] = test system: SUM149PT; assay: Antiproliferative activity against human SUM149PT cells assessed as cell growth inhibition measured after 72 hrs by SRB Assay
[2] = Effect on Wee1 level in human MV4-11 cells assessed as Wee1 level at 25 nM measured after 6 hrs by Immunoblotting method relative to control (reference value: 100%); format: functional
[3] = Effect on Wee1 level in human MV4-11 cells assessed as Wee1 level at 50 nM measured after 6 hrs by Immunoblotting method relative to control (reference value: 100%); format: functional
[4] = test system: A498; assay: Antiproliferative activity against human A498 cells assessed as cell growth inhibition measured after 72 hrs by SRB Assay; details: A498, 72 h
[5] = AUClast in ICR mouse at 20 mg/kg, po measured upto 360 mins; format: ADME, organism-based; set-up: time < 360 min, dose 20 mg/kg, route po; details: in vivo
[6] = target: Serine/threonine-protein kinase PLK1 (Homo sapiens, UniProt P53350); assay: Inhibition of PLK1 (unknown origin)
[7] = test system: MV4-11; assay: Effect on PLK1 expression in human MV4-11 cells at IC50 measured after 6 hrs by Western blot analysis; format: functional, cell-based
[8] = Effect on Wee1 level in human MV4-11 cells assessed as residual Wee1 level at 12.5 nM measured after 6 hrs by Immunoblotting method (reference value: 100%); format: functional
[9] = Observed MRTinfinity ICR mouse at 20 mg/kg, po measured upto 360 mins; format: ADME, organism-based; details: in vivo
[10] = Effect on Wee1 level in human MV4-11 cells assessed as residual Wee1 level at 6.25 nM measured after 6 hrs by Immunoblotting method (reference value: 100%); format: functional
[11] = Effect on Wee1 level in human MV4-11 cells assessed as Wee1 level at 100 nM measured after 6 hrs by Immunoblotting method relative to control (reference value: 100%); format: functional
[12] = test system: MV4-11; assay: Antiproliferative activity against human MV4-11 cells assessed as cell growth inhibition measured after 72 hrs by SRB Assay; details: MV4-11, 72 h
[13] = target: Wee1-like protein kinase (Homo sapiens) (UniProt P30291); assay: Inhibition of Wee1 in human MV4-11 cells at IC50 measured after 6 hrs by Western blot analysis relative to control; format: cell-based
[14] = Half life in ICR mouse at 20 mg/kg, po measured upto 360 mins; format: ADME, organism-based; details: in vivo
[15] = Tmax in ICR mouse at 20 mg/kg, po measured upto 360 mins; format: ADME, organism-based; details: in vivo
[16] = Cmax in ICR mouse at 20 mg/kg, po measured upto 360 mins; format: ADME, organism-based; set-up: time < 360 min, dose 20 mg/kg, route po; details: in vivo
[17] = target: T1, Protein cereblon/Wee1-like protein kinase (Homo sapiens, UniProt P30291+Q96SW2); assay: PROTAC activity at CRBN/Wee1 in human MV4-11 cells assessed as reduction in Wee1 level measured after 72 hrs by Western blot analysis; format: cell-based
[18] = Observed AUCinfinity ICR mouse at 20 mg/kg, po measured upto 360 mins; format: ADME, organism-based; set-up: time < 360 min, dose 20 mg/kg, route po; details: in vivo
[19] = target: T1, Protein cereblon/Wee1-like protein kinase; assay: PROTAC activity at CRBN/Wee1 in human MV4-11 cells assessed as residual Wee1 level at IC50 measured after 6 hrs by Western blot analysis (reference value: 100%); format: cell-based

Serine/threonine-protein kinase PLK1, sequence (P53350 whole entry): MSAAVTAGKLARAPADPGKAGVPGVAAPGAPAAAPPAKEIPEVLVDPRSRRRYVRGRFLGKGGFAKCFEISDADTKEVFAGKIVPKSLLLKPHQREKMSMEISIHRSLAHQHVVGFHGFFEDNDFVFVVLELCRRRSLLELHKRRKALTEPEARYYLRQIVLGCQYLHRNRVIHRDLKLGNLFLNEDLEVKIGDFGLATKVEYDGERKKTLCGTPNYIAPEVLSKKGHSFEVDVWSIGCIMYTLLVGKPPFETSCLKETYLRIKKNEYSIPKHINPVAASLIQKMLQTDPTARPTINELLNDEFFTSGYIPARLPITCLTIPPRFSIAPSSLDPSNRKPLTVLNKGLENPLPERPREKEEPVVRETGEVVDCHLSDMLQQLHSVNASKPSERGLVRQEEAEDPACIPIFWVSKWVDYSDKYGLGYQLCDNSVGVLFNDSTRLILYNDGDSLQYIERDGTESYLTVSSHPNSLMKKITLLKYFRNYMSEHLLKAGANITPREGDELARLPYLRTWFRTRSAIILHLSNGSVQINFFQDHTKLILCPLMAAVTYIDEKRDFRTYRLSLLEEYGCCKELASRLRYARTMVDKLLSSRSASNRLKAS
T1 sequence (P30291 whole entry, looked up): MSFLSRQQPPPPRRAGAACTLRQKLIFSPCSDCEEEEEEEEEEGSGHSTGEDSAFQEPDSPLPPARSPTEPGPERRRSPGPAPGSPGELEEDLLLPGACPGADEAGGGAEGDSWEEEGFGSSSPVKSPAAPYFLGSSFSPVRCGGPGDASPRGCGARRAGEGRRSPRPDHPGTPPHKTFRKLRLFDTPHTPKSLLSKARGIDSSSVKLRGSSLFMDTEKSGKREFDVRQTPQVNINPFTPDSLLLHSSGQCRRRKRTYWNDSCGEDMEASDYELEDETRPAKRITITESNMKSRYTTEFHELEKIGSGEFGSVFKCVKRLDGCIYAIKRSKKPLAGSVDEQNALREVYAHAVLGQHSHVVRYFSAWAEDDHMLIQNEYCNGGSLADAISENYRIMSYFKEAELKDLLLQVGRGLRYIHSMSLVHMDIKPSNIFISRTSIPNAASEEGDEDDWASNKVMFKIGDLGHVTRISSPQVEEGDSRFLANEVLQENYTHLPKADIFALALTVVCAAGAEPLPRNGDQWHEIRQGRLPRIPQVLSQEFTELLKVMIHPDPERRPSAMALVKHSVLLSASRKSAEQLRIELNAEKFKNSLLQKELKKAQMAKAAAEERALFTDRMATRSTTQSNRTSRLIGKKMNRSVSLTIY
T1 sequence (Q96SW2 whole entry, looked up): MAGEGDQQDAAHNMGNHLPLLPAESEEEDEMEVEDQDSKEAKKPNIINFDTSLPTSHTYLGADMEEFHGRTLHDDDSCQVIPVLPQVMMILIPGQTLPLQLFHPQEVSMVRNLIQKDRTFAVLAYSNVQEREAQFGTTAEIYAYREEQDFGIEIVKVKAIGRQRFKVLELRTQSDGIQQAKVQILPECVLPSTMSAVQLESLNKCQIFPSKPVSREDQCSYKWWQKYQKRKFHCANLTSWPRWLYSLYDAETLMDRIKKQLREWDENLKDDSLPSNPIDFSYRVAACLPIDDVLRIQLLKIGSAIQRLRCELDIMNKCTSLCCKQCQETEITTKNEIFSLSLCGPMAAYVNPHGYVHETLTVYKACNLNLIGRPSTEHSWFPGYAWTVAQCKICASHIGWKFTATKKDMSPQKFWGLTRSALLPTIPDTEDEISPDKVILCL
Wee1-like protein kinase (Homo sapiens), sequence (P30291 whole entry, looked up): as the sequence (P30291 whole entry, looked up) above

| SMILES | pIC50 [1] | pIC50 [4] | Activity [7] | pIC50 [12] | Activity [19] | other results |
| --- | --- | --- | --- | --- | --- | --- |
| C=CCn1c(=O)c2cnc(Nc3ccc(N4CCN(C)CC4)cc3)nc2n1-c1cccc(C(C)(C)O)n1 [ADAVOSERTIB] | 6.27 | 6.67 | inactive | 6.88 | – | Activity [2]: 90%; Activity [3]: 70%; AUC(0-t) at 6 h [5]: 915 ng·h/mL; pIC50 [6]: 6.57; Activity [8]: 98%; MRT inf [9]: 2.84 h; Activity [10]: 90%; Activity [11]: 120%; inhibition [13]: 94%; half-life [14]: 7.15 h; Tmax [15]: 0.25 h; Cmax [16]: 681 ng/mL; Activity [17]: inactive; AUC(0-inf) [18]: 934 ng·h/mL |
| C=CCn1c(=O)c2cnc(Nc3ccc(N4CCN(CC(=O)NCCCCC(=O)NCCNc5cccc6c5C(=O)N(C5CCC(=O)NC5=O)C6=O)CC4)cc3)nc2n1-c1cccc(C(C)(C)O)n1 (configuration not stated) | < 5.00 | < 5.00 | inactive | 5.70 | 22% | – |
| C=CCn1c(=O)c2cnc(Nc3ccc(N4CCN(CC(=O)NCCOCCOCCOCCOCCOCCNc5cccc6c5C(=O)N(C5CCC(=O)NC5=O)C6=O)CC4)cc3)nc2n1-c1cccc(C(C)(C)O)n1 (configuration not stated) | < 5.00 | 5.00 | inactive | 5.67 | 26% | pIC50 [6]: < 5.00 |
| C=CCn1c(=O)c2cnc(Nc3ccc(N4CCN(CCCCCNc5cccc6c5C(=O)N(C5CCC(=O)NC5=O)C6=O)CC4)cc3)nc2n1-c1cccc(C(C)(C)O)n1 (configuration not stated) | 5.90 | 5.88 | inactive | 6.74 | 24% | – |
| C=CCn1c(=O)c2cnc(Nc3ccc(N4CCN(CC(=O)NCCOCCOCCOCCNc5cccc6c5C(=O)N(C5CCC(=O)NC5=O)C6=O)CC4)cc3)nc2n1-c1cccc(C(C)(C)O)n1 (configuration not stated) | < 5.00 | < 5.00 | inactive | 5.66 | 37% | – |
| C=CCn1c(=O)c2cnc(Nc3ccc(N4CCN(CC(=O)NCCOCCOCCOCCOCCNc5cccc6c5C(=O)N(C5CCC(=O)NC5=O)C6=O)CC4)cc3)nc2n1-c1cccc(C(C)(C)O)n1 (configuration not stated) | 5.50 | 5.23 | inactive | 6.39 | 49% | – |
| C=CCn1c(=O)c2cnc(Nc3ccc(N4CCN(CC(=O)NCCCCNc5cccc6c5C(=O)N(C5CCC(=O)NC5=O)C6=O)CC4)cc3)nc2n1-c1cccc(C(C)(C)O)n1 (configuration not stated) | 5.80 | 5.27 | inactive | 6.64 | 21% | – |
| C=CCn1c(=O)c2cnc(Nc3ccc(N4CCN(CC(=O)NCCCCCNc5cccc6c5C(=O)N(C5CCC(=O)NC5=O)C6=O)CC4)cc3)nc2n1-c1cccc(C(C)(C)O)n1 (configuration not stated) | 5.67 | 5.16 | inactive | 6.09 | 32% | – |
| C=CCn1c(=O)c2cnc(Nc3ccc(N4CCN(CC(=O)NCCOCCOCCOCCOCCOCCOCCOCCOCCNc5cccc6c5C(=O)N(C5CCC(=O)NC5=O)C6=O)CC4)cc3)nc2n1-c1cccc(C(C)(C)O)n1 (configuration not stated) | 5.05 | < 5.00 | inactive | 6.28 | 28% | – |
| C=CCn1c(=O)c2cnc(Nc3ccc(N4CCN(CC(=O)NCCCCCCNc5cccc6c5C(=O)N(C5CCC(=O)NC5=O)C6=O)CC4)cc3)nc2n1-c1cccc(C(C)(C)O)n1 (configuration not stated) | 5.55 | 5.18 | inactive | 5.96 | 49% | – |
| C=CCn1c(=O)c2cnc(Nc3ccc(N4CCN(CC(=O)NCCOCCOCCOCCOCCOCCOCCOCCNc5cccc6c5C(=O)N(C5CCC(=O)NC5=O)C6=O)CC4)cc3)nc2n1-c1cccc(C(C)(C)O)n1 (configuration not stated) | < 5.00 | < 5.00 | inactive | 6.15 | 21% | pIC50 [6]: < 5.00 |
| C=CCn1c(=O)c2cnc(Nc3ccc(N4CCN(CC(=O)NCCCCC(=O)NCc5ccc(CNc6cccc7c6C(=O)N(C6CCC(=O)NC6=O)C7=O)cc5)CC4)cc3)nc2n1-c1cccc(C(C)(C)O)n1 (configuration not stated) | < 5.00 | < 5.00 | inactive | 5.22 | 27% | pIC50 [6]: < 5.00 |
| C=CCn1c(=O)c2cnc(Nc3ccc(N4CCN(CC(=O)NCCCCC(=O)NCc5ccc(COc6cccc7c6C(=O)N(C6CCC(=O)NC6=O)C7=O)cc5)CC4)cc3)nc2n1-c1cccc(C(C)(C)O)n1 (configuration not stated) | < 5.00 | < 5.00 | inactive | 5.15 | 45% | – |
| C=CCn1c(=O)c2cnc(Nc3ccc(N4CCN(CC(=O)NCCCNc5cccc6c5C(=O)N(C5CCC(=O)NC5=O)C6=O)CC4)cc3)nc2n1-c1cccc(C(C)(C)O)n1 (configuration not stated) | 5.81 | 5.11 | inactive | 6.67 | 37% | – |
| C=CCn1c(=O)c2cnc(Nc3ccc(N4CCN(CC(=O)NCCCCC(=O)NCCOc5cccc6c5C(=O)N(C5CCC(=O)NC5=O)C6=O)CC4)cc3)nc2n1-c1cccc(C(C)(C)O)n1 (configuration not stated) | < 5.00 | < 5.00 | inactive | 5.30 | 23% | – |
| C=CCn1c(=O)c2cnc(Nc3ccc(N4CCN(CC(=O)NCCOCCOCCNc5cccc6c5C(=O)N(C5CCC(=O)NC5=O)C6=O)CC4)cc3)nc2n1-c1cccc(C(C)(C)O)n1 (configuration not stated) | 5.22 | < 5.00 | inactive | 6.00 | 21% | pIC50 [6]: < 5.00 |
| C=CCn1c(=O)c2cnc(Nc3ccc(N4CCN(CC(=O)NCCOCCOCCOCCOCCOCCOCCNc5cccc6c5C(=O)N(C5CCC(=O)NC5=O)C6=O)CC4)cc3)nc2n1-c1cccc(C(C)(C)O)n1 (configuration not stated) | < 5.00 | < 5.00 | inactive | 5.95 | 33% | – |
